Key:
[1] = biological target: RgNanOx (RUMGNA_02695), oxidoreductase (Mediterraneibacter gnavus, UniProt A7B558); assay: HPLC of DMB-labelled product with and without cofactor; format: biochemical
[2] = biological target: EcNanA (E. coli Neu5Ac lyase/aldolase) (Escherichia coli, UniProt P0A6L4); assay: lactate dehydrogenase-coupled aldolase assay; format: biochemical
[3] = biological target: T1, RgNanA (RUMGNA_02692), sialic acid aldolase (Mediterraneibacter gnavus, UniProt A7B555, K177A); assay: X-ray crystal structure; format: binding
T1 sequence (A7B555 11-315 K177A): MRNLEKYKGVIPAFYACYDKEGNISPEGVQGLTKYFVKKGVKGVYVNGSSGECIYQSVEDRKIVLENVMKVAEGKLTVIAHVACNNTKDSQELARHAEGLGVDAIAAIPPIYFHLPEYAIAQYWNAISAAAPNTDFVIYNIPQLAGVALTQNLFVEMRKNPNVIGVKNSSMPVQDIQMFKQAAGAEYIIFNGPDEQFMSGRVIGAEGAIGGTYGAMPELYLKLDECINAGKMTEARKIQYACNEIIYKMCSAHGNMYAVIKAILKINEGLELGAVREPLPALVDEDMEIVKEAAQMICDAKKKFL

[4] = test system: CC(=O)N[C@H]1[C@H]2O[C@@](C(=O)O)(C[C@@H]1O)O[C@@H]2[C@H](O)CO; assay: purified protein; conditions: NAD+ or NADH
[5] = substrate: CC(=O)N[C@@H]1[C@@H](O)CC(O)(C(=O)O)O[C@H]1C(O)C(O)CO; assay: purified protein

With `NC(=O)c1ccc[n+]([C@@H]2O[C@H](COP(=O)([O-])OP(=O)(O)OC[C@H]3O[C@@H](n4cnc5c(N)ncnc54)[C@H](O)[C@@H]3O)[C@@H](O)[C@H]2O)c1` [NAD^+] the “HPLC of DMB-labelled product with and without cofactor (500 μM)” value [1] was “Neu5Ac was produced in the presence of NAD^+ or NADH, but not in the presence of FAD”.

`CC(=O)N[C@@H]1[C@@H](O)CC(O)(C(=O)O)O[C@H]1C(O)C(O)CO` (stereo partly drawn) [Neu5Ac] was tested, and the “lactate dehydrogenase-coupled aldolase assay (control enzyme)” value [2] was “RgNanA and EcNanA (E. coli Neu5Ac lyase/aldolase used as a control) showed activity against Neu5Ac” and the “X-ray crystal structure (5 mM Neu5Ac soak of inactive mutant)” value [3] was “complex between an inactive mutant, RgNanA K167A, and Neu5Ac showed Neu5Ac in the open-chain ketone form”.

For `NC(=O)C1=CN([C@@H]2O[C@H](COP(=O)(O)OP(=O)(O)OC[C@H]3O[C@@H](n4cnc5c(N)ncnc54)[C@H](O)[C@@H]3O)[C@@H](O)[C@H]2O)C=CC1` [NADH], the “HPLC of DMB-labelled product with and without cofactor (500 μM)” value [1] was “Neu5Ac was produced in the presence of NAD^+ or NADH, but not in the presence of FAD”.

“RgNanOx (RUMGNA_02695), oxidoreductase (Mediterraneibacter gnavus ATCC 29149)” gave a Km [4] of 74 ± 14 µM.

B1: RgNanA (RUMGNA_02692), sialic acid aldolase (Mediterraneibacter gnavus ATCC 29149) (protein)
chain: MAFMKQRSKTMRNLEKYKGVIPAFYACYDKEGNISPEGVQGLTKYFVKKGVKGVYVNGSSGECIYQSVEDRKIVLENVMKVAEGKLTVIAHVACNNTKDSQELARHAEGLGVDAIAAIPPIYFHLPEYAIAQYWNAISAAAPNTDFVIYNIPQLAGVALTQNLFVEMRKNPNVIGVKNSSMPVQDIQMFKQAAGAEYIIFNGPDEQFMSGRVIGAEGAIGGTYGAMPELYLKLDECINAGKMTEARKIQYACNEIIYKMCSAHGNMYAVIKAILKINEGLELGAVREPLPALVDEDMEIVKEAAQMICDAKKKFL
Work on B1 yielded a Km [5] of 1473 ± 98 µM.

Reference: publication PMC6881182 (Nature microbiology, 2019)
